Data published in ChEMBL document CHEMBL5226287, “Small organic molecules targeting the energy metabolism of Mycobacterium tuberculosis” (Eur J Med Chem, 2021).
Starred links: 1 amine or outer side, 2 acyl side, 3 side chain; linkers in the order of their positions; H or OH if unused. Non-standard residues stand in square brackets, D forms with d. Residues, ends and D or L forms follow the SMILES beside them. ξ: configuration not given here. *: point of attachment. X1 = CCC(=O)C[C@@H](O)C[C@@H](C)C[C@H](N[*:1])C(=O)[*:2]; Alaψ(CH2NMeCH2CH2OH) = C[C@@H](CN(C)CCO)N*; Decanoyl(2R-Me) = CCCCCCCC[C@@H](C)C(=O)*; Ile(3ξ) = CCC(C)[C@H](N)C(=O)O; ξβ3hP = O=C(O)CC1CCCN1; Aib = CC(C)(N)C(=O)O

Experiments:
[1] = Inhibition of Mycobacterium smegmatis cytochrome bd oxidase with ATP overexpression inverted membrane vesicles; assay type: cell membranes, Mycobacterium tuberculosis, Membrane vesicle
[2] = Inhibition of Mycobacterium smegmatis cytochrome bd oxidase with ATP synthase overexpression inverted membrane vesicles; assay type: cell membranes, Mycobacterium tuberculosis, Membrane vesicle
[3] = Inhibition of Mycobacterium bovis BCG cytochrome bd oxidase with ATP synthase overexpression inverted membrane vesicles; assay type: cell membranes, Mycobacterium tuberculosis variant bovis, Membrane vesicle

Compound	IC50 [1]	IC50 [2]	IC50 [3]
O=C(CNC1CCCCC1)N(c1ccccc1)c1ccccc1	10.4 µM		
O=C(CNC1CCCC1)N(c1ccccc1)c1ccccc1	14 µM		
CCCCCCCC[C@@H](C)C(=O)N1CCCC1CC(=O)N[C@@H](C[C@H](C)C[C@H](O)CC(=O)CC)C(=O)NC(C)(C)C(=O)NC(C)(C)C(=O)N[C@H](C(=O)N[C@H](C(=O)NC(C)(C)C(=O)NC(C)(C)C(=O)N[C@@H](C)CN(C)CCO)C(C)C)C(C)CC (stereo partly drawn) ({Decanoyl(2R-Me)}-[ξβ3hP][X1][Aib][Aib][Ile(3ξ)]V[Aib][Aib]-{Alaψ(CH2NMeCH2CH2OH)})		0.5 µM	5.2 µM
